≈ marks a conversion by molar mass, not a printed value. Calls of active or inactive are those of the source. The calls are words filed in the database; no cut-off is given here.
Experiments:
Type in all cases: functional, cell-based
B16-F10 [1] = test: Cytotoxicity against mouse B16F10 cells assessed as reduction in cell viability at 100 ug/ml after 24 hrs by MTT assay
U-937 = test: Cytotoxicity against human U937 cells assessed as reduction in cell viability at 100 ug/ml after 24 hrs by MTT assay
HL-60 [2] = test: Cytotoxicity against human HL60 cells assessed as reduction in cell viability at 100 ug/ml after 24 hrs by MTT assay
THP-1 [3] = test: Cytotoxicity against human THP1 cells assessed as reduction in cell viability at 100 ug/ml after 24 hrs by MTT assay
[4] = Cytotoxicity against human U937 cells assessed as reduction in cell viability after 24 hrs by MTT assay; settings: U-937, 24 h
HL-60 [5] = test: Cytotoxicity against human HL60 cells assessed as reduction in cell viability after 24 hrs by MTT assay; settings: HL-60, 24 h
B16-F10 [6] = test: Cytotoxicity against mouse B16F10 cells assessed as reduction in cell viability after 24 hrs by MTT assay; settings: B16-F10, 24 h
THP-1 [7] = test: Cytotoxicity against human THP1 cells assessed as reduction in cell viability after 24 hrs by MTT assay; settings: THP-1, 24 h

Row | Compound | Activity (B16-F10 [1]) | Activity (U-937) | Activity (HL-60 [2]) | Activity (THP-1 [3]) | IC50 [4] [µg/mL] | IC50 (HL-60 [5]) [µg/mL] | IC50 (B16-F10 [6]) [µg/mL] | IC50 (THP-1 [7]) [µg/mL]
1 | COc1ccc(-n2cc(Cn3nc(N)c4c(C(F)(F)F)cc(-c5ccccc5)nc43)nn2)cc1 | inactive | inactive | inactive | inactive | – | – | – | –
2 | Nc1nn(Cc2cn(-c3ccc([N+](=O)[O-])cc3)nn2)c2nc(-c3ccccc3)cc(C(F)(F)F)c12 | inactive | – | inactive | inactive | 98.8 (≈ 206 µM) | – | – | –
3 | Nc1nn(Cc2cn(-c3ccc(F)c(Cl)c3)nn2)c2nc(-c3ccccc3)cc(C(F)(F)F)c12 | inactive | – | – | inactive | 99.1 (≈ 203 µM) | 35 (≈ 71.8 µM) | – | –
4 | Nc1nn(Cc2cn(CC(=O)NC3CCCCC3)nn2)c2nc(-c3ccccc3)cc(C(F)(F)F)c12 | – | – | – | – | 89 (≈ 179 µM) | 42.9 (≈ 86.2 µM) | 99.1 (≈ 199 µM) | 64.8 (≈ 130 µM)
5 | COc1ccc(NC(=O)Cn2cc(Cn3nc(N)c4c(C(F)(F)F)cc(-c5ccccc5)nc43)nn2)cc1 | inactive | inactive | inactive | – | – | – | – | 56.7 (≈ 109 µM)
6 | Nc1nn(Cc2cn(CC(=O)Nc3ccc(F)cc3Br)nn2)c2nc(-c3ccccc3)cc(C(F)(F)F)c12 | – | – | – | – | 98.3 (≈ 167 µM) | 63.6 (≈ 108 µM) | 98 (≈ 166 µM) | 65.6 (≈ 111 µM)
7 | Nc1nn(Cc2cn(-c3cccc(C(F)(F)F)c3)nn2)c2nc(-c3ccccc3)cc(C(F)(F)F)c12 | inactive | inactive | inactive | inactive | – | – | – | –
8 | CCCCCCn1cc(Cn2nc(N)c3c(C(F)(F)F)cc(-c4ccccc4)nc32)nn1 | inactive | inactive | inactive | inactive | – | – | – | –
9 | COc1cc([C@@H]2c3cc4c(cc3[C@@H](O[C@@H]3O[C@@H]5CO[C@@H](C)O[C@H]5[C@H](O)[C@H]3O)[C@H]3COC(=O)[C@H]23)OCO4)cc(OC)c1O [ETOPOSIDE] | – | – | – | – | 6.7 (≈ 11.4 µM) | 2.13 (≈ 3.62 µM) | 3.8 (≈ 6.46 µM) | 6.34 (≈ 10.8 µM)
10 | Cc1c(Br)cccc1-n1cc(Cn2nc(N)c3c(C(F)(F)F)cc(-c4ccccc4)nc32)nn1 | inactive | – | inactive | inactive | 97.2 (≈ 184 µM) | – | – | –
11 | Nc1nn(Cc2cn(-c3ccc(F)cc3)nn2)c2nc(-c3ccccc3)cc(C(F)(F)F)c12 | inactive | inactive | inactive | inactive | – | – | – | –
12 | Nc1nn(Cc2cn(-c3ccccc3)nn2)c2nc(-c3ccccc3)cc(C(F)(F)F)c12 | inactive | inactive | inactive | inactive | – | – | – | –
13 | Cc1ccc(NC(=O)Cn2cc(Cn3nc(N)c4c(C(F)(F)F)cc(-c5ccccc5)nc43)nn2)cc1 | inactive | – | inactive | – | 65.3 (≈ 129 µM) | – | – | 41.5 (≈ 81.9 µM)
14 | CCCCn1cc(Cn2nc(N)c3c(C(F)(F)F)cc(-c4ccccc4)nc32)nn1 | inactive | inactive | – | – | – | 36.7 (≈ 88.4 µM) | – | 46.1 (≈ 111 µM)
15 | Nc1nn(Cc2cn(CC(=O)Nc3cccc(Cl)c3)nn2)c2nc(-c3ccccc3)cc(C(F)(F)F)c12 | inactive | inactive | inactive | – | – | – | – | 37 (≈ 70.3 µM)
16 | Nc1nn(Cc2cn(-c3ccc(Br)c(F)c3)nn2)c2nc(-c3ccccc3)cc(C(F)(F)F)c12 | inactive | inactive | inactive | inactive | – | – | – | –
17 | Nc1nn(Cc2cn(CC(=O)Nc3cccc(F)c3)nn2)c2nc(-c3ccccc3)cc(C(F)(F)F)c12 | inactive | – | – | – | 43.5 (≈ 85.3 µM) | 63.9 (≈ 125 µM) | – | 99.5 (≈ 195 µM)
18 | Nc1nn(Cc2cn(CC(=O)Nc3c(F)cccc3F)nn2)c2nc(-c3ccccc3)cc(C(F)(F)F)c12 | – | – | – | – | 30.6 (≈ 58 µM) | 32.8 (≈ 62 µM) | 41.6 (≈ 78.7 µM) | 43.3 (≈ 81.9 µM)
19 | Cc1ccc(-n2cc(Cn3nc(N)c4c(C(F)(F)F)cc(-c5ccccc5)nc43)nn2)cc1 | inactive | inactive | inactive | – | – | – | – | 98.6 (≈ 219 µM)
20 | CCCCCCCCn1cc(Cn2nc(N)c3c(C(F)(F)F)cc(-c4ccccc4)nc32)nn1 | inactive | inactive | inactive | inactive | – | – | – | –
21 | Nc1nn(Cc2cn(CC(=O)Nc3ccccc3Br)nn2)c2nc(-c3ccccc3)cc(C(F)(F)F)c12 | inactive | inactive | – | – | – | 27.2 (≈ 47.6 µM) | – | 95.3 (≈ 167 µM)
22 | Nc1nn(Cc2cn(CC(=O)Nc3ccc(F)cc3)nn2)c2nc(-c3ccccc3)cc(C(F)(F)F)c12 | inactive | inactive | – | – | – | 44.8 (≈ 87.7 µM) | – | 49.5 (≈ 97.1 µM)
23 | CCCCCCCCCCn1cc(Cn2nc(N)c3c(C(F)(F)F)cc(-c4ccccc4)nc32)nn1 | – | – | – | – | 27.1 (≈ 54.3 µM) | 29.9 (≈ 59.8 µM) | 84.9 (≈ 170 µM) | 48.7 (≈ 97.4 µM)
24 | Nc1nn(Cc2cn(CC(=O)Nc3ccccc3)nn2)c2nc(-c3ccccc3)cc(C(F)(F)F)c12 | inactive | inactive | – | – | – | 96.3 (≈ 196 µM) | – | 54.6 (≈ 111 µM)
25 | Nc1nn(Cc2cn(-c3cccc(Cl)c3)nn2)c2nc(-c3ccccc3)cc(C(F)(F)F)c12 | inactive | – | inactive | inactive | – | – | – | –
26 | Nc1nn(Cc2cn(CCC(F)(F)C(F)(F)C(F)(F)C(F)(F)C(F)(F)C(F)(F)F)nn2)c2nc(-c3ccccc3)cc(C(F)(F)F)c12 | inactive | – | – | inactive | 98.2 (≈ 139 µM) | 97.6 (≈ 138 µM) | – | –
27 | Nc1nn(Cc2cn(-c3ccc(O)c([N+](=O)[O-])c3)nn2)c2nc(-c3ccccc3)cc(C(F)(F)F)c12 | – | – | – | – | 41.3 (≈ 83.1 µM) | – | 42.3 (≈ 85.1 µM) | 36.2 (≈ 73 µM)
28 | Nc1nn(Cc2cn(CCC(F)(F)C(F)(F)C(F)(F)C(F)(F)C(F)(F)C(F)(F)C(F)(F)C(F)(F)F)nn2)c2nc(-c3ccccc3)cc(C(F)(F)F)c12 | inactive | inactive | inactive | inactive | – | – | – | –

Source: ChEMBL document CHEMBL3112418, “Synthesis of novel 1,2,3-triazole tagged pyrazolo[3,4-b]pyridine derivatives and their cytotoxic activity” (Bioorg Med Chem Lett, 2014)
